Consider nine molecules from US12371454B2, “Cyclic peptide compound having Kras inhibitory action” (priority 2019, dated 2025).

Positions of bridges follow the written chain, without caps; N, C: chain ends. Non-standard residues stand in square brackets, D forms with d. Residues, ends and D or L forms follow the SMILES beside them. *: point of attachment. hPhe(3,5-F2-4-CF3) = N[C@@H](CCc1cc(F)c(C(F)(F)F)c(F)c1)C(=O)O; hPhe(3-Cl-4-CF3) = N[C@@H](CCc1ccc(C(F)(F)F)c(Cl)c1)C(=O)O; hPhe(4-CF3) = N[C@@H](CCc1ccc(C(F)(F)F)cc1)C(=O)O; NMePhe(4-Cl) = CN[C@@H](Cc1ccc(Cl)cc1)C(=O)O; Phe(3-I) = N[C@@H](Cc1cccc(I)c1)C(=O)O; Pro(4,4-F2) = O=C(O)[C@@H]1CC(F)(F)CN1; NMeGly(cBu) = CN[C@H](C(=O)O)C1CCC1; NMeY = CN[C@@H](Cc1ccc(O)cc1)C(=O)O; NMeCha = CN[C@@H](CC1CCCCC1)C(=O)O; NMeChg = CN[C@H](C(=O)O)C1CCCCC1; NMeF = CN[C@@H](Cc1ccccc1)C(=O)O; NMeD = CN[C@@H](CC(=O)O)C(=O)O; NMeL = CN[C@@H](CC(C)C)C(=O)O; NMeV = CN[C@H](C(=O)O)C(C)C; d(β3hA) = C[C@@H](N)CC(=O)O; dPip = O=C(O)[C@H]1CCCCN1; NMeA = CN[C@@H](C)C(=O)O; NMeAib = CNC(C)(C)C(=O)O; Nle = CCCC[C@H](N)C(=O)O; Piperidide = C1CCN(*)CC1; Pra = C#CC[C@H](N)C(=O)O; Pyrrolidide = C1CCN(*)C1; Ac5c = NC1(C(=O)O)CCCC1; Aze = O=C(O)[C@@H]1CCN1; Ac4c = NC1(C(=O)O)CCC1; Aib = CC(C)(N)C(=O)O; βAla = NCCC(=O)O; CF3 = FC(F)(F)*; Sar = CNCC(=O)O

For the assay, the target named is T1, Kras and SOS1 (biotin-tagged human Kras loaded with GDP, His-tagged human SOS1) (Homo sapiens, UniProt P01116, G12D).
T1 construct: made in house; host or cells: E. coli (stated for Kras only)
T1 sequence (P01116 1-188 isoform P01116-2 G12D): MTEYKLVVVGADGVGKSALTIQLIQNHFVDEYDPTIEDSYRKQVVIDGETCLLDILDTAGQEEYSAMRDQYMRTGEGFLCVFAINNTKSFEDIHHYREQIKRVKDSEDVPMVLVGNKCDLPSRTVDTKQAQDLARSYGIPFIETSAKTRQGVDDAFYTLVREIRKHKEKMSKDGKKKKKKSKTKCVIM
Nature of the assay: Protein-protein interaction inhibition between Kras and SOS1 (KrasGl2D-SOS PPI) using AlphaScreen. It counts as binding. The following applies: AlphaScreen; biotin-tagged human Kras loaded with GDP, His-tagged human SOS1; read-out: KRAS G12D-SOS PPI IC50. Summed up:
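Kras was produced in E. coli, purified, then loaded with GDP. It was paired via streptavidin acceptor beads with His-SOS1 held on nickel donor beads, and proximity signal at 520-620 nm was read after 680 nm illumination.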
In the case of `CC[C@H](C)[C@@H]1NC(=O)[C@H](CC(C)C)N(C)C(=O)C[C@@H](C(=O)N2CCCC2)N(C)C(=O)[C@H](C2CCCCC2)N(C)C(=O)C2(CCC2)NC(=O)[C@@H]2CCCN2C(=O)[C@H](CCc2ccc(C(F)(F)F)c(Cl)c2)NC(=O)CN(C)C(=O)[C@H](CC2CCCCC2)N(C)C(=O)CN(C)C(=O)CN(C)C1=O` [Compound 1894] ([NMeL]I[Sar][Sar][NMeCha][Sar][hPhe(3-Cl-4-CF3)]P[Ac4c][NMeChg][NMeD]-Pyrrolidide; lactam N-11), the IC50 stood at 0.55 nM.
With `CC[C@H](C)[C@@H]1NC(=O)[C@H](CC2CCCCC2)N(C)C(=O)C[C@@H](C)NC(=O)[C@H](CC(C)C)N(C)C(=O)C2(CCCC2)NC(=O)[C@@H]2CCCN2C(=O)[C@H](CCc2ccc(C(F)(F)F)cc2)NC(=O)CN(C)C(=O)[C@H](Cc2ccc(Cl)cc2)N(C)C(=O)CN(C)C(=O)CN(C)C1=O` [Compound 578] (cyclo([Ac5c][NMeL][d(β3hA)][NMeCha]I[Sar][Sar][NMePhe(4-Cl)][Sar][hPhe(4-CF3)]P)), the IC50 worked out at 120 nM.
`C#CC[C@@H]1NC(=O)[C@H](Cc2cccc(I)c2)NC(=O)CN(C)C(=O)[C@H](Cc2ccc(OC(F)(F)F)cc2)N(C)C(=O)[C@@H]2CCN2C(=O)CN(C)C(=O)[C@H]([C@@H](C)CC)NC(=O)[C@H](CC(C)C)N(C)C(=O)C[C@@H](C(=O)N2CCCCC2)N(C)C(=O)[C@H](CC(C)C)NC(=O)C(C)(C)N(C)C1=O` [Compound 1298] ([NMeL]I[Sar][Aze][NMeY](CF3)[Sar][Phe(3-I)][Pra][NMeAib]L[NMeD]-Piperidide; lactam N-11): the IC50 was determined as 28 nM.
With `CC[C@H](C)[C@@H]1NC(=O)CCNC(=O)[C@H](Cc2ccccc2)N(C)C(=O)[C@H](C2CCCCC2)N(C)C(=O)C2(CCCC2)NC(=O)[C@@H]2CCCN2C(=O)[C@H](CCc2ccc(C(F)(F)F)c(Cl)c2)NC(=O)CN(C)C(=O)[C@H](CC2CCCCC2)N(C)C(=O)CN(C)C(=O)CN(C)C1=O` [Compound 1007] (cyclo([Ac5c][NMeChg][NMeF][βAla]I[Sar][Sar][NMeCha][Sar][hPhe(3-Cl-4-CF3)]P)), the IC50 was determined as 13 nM.
Under `CC[C@H](C)[C@@H]1NC(=O)[C@H](C2CCC2)N(C)C(=O)C[C@@H](C(=O)N2CCCC2)N(C)C(=O)[C@H](C2CCCCC2)N(C)C(=O)C2(CCCC2)NC(=O)[C@@H]2CC(F)(F)CN2C(=O)[C@H](CCc2ccc(C(F)(F)F)c(Cl)c2)NC(=O)CN(C)C(=O)[C@H](CC2CCCCC2)N(C)C(=O)CN(C)C(=O)CN(C)C1=O` [Compound 1363] ([NMeGly(cBu)]I[Sar][Sar][NMeCha][Sar][hPhe(3-Cl-4-CF3)][Pro(4,4-F2)][Ac5c][NMeChg][NMeD]-Pyrrolidide; lactam N-11) stands 0.57 nM; under `CC[C@H](C)[C@@H]1NC(=O)[C@H](CC(C)C)N(C)C(=O)C[C@@H](C(=O)N2CCCC2)N(C)C(=O)[C@H](C2CCCCC2)N(C)C(=O)C2(CCC2)NC(=O)[C@@H]2CCCN2C(=O)[C@H](CCc2cc(F)c(C(F)(F)F)c(F)c2)NC(=O)CN(C)C(=O)[C@H](CC2CCCCC2)N(C)C(=O)CN(C)C(=O)CN(C)C1=O` [Compound 1165] ([NMeL]I[Sar][Sar][NMeCha][Sar][hPhe(3,5-F2-4-CF3)]P[Ac4c][NMeChg][NMeD]-Pyrrolidide; lactam N-11), 0.73 nM.
Under `CCCC[C@@H]1NC(=O)[C@H](Cc2cccc(I)c2)NC(=O)CN(C)C(=O)[C@H](CC2CCCCC2)N(C)C(=O)[C@@H]2CCN2C(=O)CN(C)C(=O)[C@H]([C@@H](C)CC)NC(=O)[C@H](CC(C)C)N(C)C(=O)C[C@@H](C(=O)N2CCCCC2)N(C)C(=O)[C@H](CC(C)C)NC(=O)C(C)(C)N(C)C1=O` [Compound 1420] ([NMeL]I[Sar][Aze][NMeCha][Sar][Phe(3-I)][Nle][NMeAib]L[NMeD]-Piperidide; lactam N-11) stands 89 nM; under `CC[C@H](C)[C@@H]1NC(=O)[C@H](CC(C)C)N(C)C(=O)C[C@@H](C)NC(=O)[C@H](C(C)C)N(C)C(=O)C(C)(C)NC(=O)[C@@H]2CCCN2C(=O)[C@H](CCc2ccc(C(F)(F)F)c(Cl)c2)NC(=O)CN(C)C(=O)[C@H](CC2CCCCC2)N(C)C(=O)CN(C)C(=O)CN(C)C1=O` [Compound 641] (cyclo([Aib][NMeV][d(β3hA)][NMeL]I[Sar][Sar][NMeCha][Sar][hPhe(3-Cl-4-CF3)]P)), 18 nM.
In the case of `CC[C@H](C)[C@@H]1NC(=O)[C@H](C)N(C)C(=O)C[C@@H](C)NC(=O)[C@H](C(C)C)N(C)C(=O)C2(CCCC2)NC(=O)[C@@H]2CCCN2C(=O)[C@H](CCc2ccc(C(F)(F)F)c(Cl)c2)NC(=O)[C@H]2CCCCN2C(=O)[C@H](CC2CCCCC2)N(C)C(=O)[C@@H]2CCCN2C(=O)CN(C)C1=O` [Compound 834] (cyclo([Ac5c][NMeV][d(β3hA)][NMeA]I[Sar]P[NMeCha][dPip][hPhe(3-Cl-4-CF3)]P)), the IC50 is 57 nM.
